Row | melting point | SMILES
1 | 192 °C | Cc1ccc(S(=O)(=O)NC(=O)NC2C3CCC(C)(C2O)C3(C)C)cc1 (stereo not drawn)
2 | 360 °C | O=C1OC2(c3ccc(O)cc3Oc3cc(O)ccc32)c2ccc(N=C=S)cc21
3 | 161 °C | COc1ccc(C(=O)c2noc(-c3ccccc3)c2S(=O)(=O)c2ccccc2)cc1
4 | 172 °C | Oc1ccnc2c(C(F)(F)F)cccc12
5 | 70 °C | CCOC(=O)c1nc2ccccc2s1
6 | 119 °C | COc1cc(C(=O)OCc2cccc(COC(=O)c3cc(OC)c(OC)c(OC)c3)n2)cc(OC)c1OC
7 | 175 to 177 °C | CCOC(=O)c1c(NC(=S)Nc2cccc(Cl)c2)sc2c1CCCC2
8 | 42.3 °C | CCOC(=O)c1ccc(COC(C)=O)o1
9 | 32 °C | O=S(=O)(Cl)c1cccc(Br)c1
10 | 105 °C | Cc1ccc(NC(=O)C(C)c2ccc(C)cc2)cc1 (stereo not drawn)
11 | 50 °C | O=C(CBr)OCc1ccc([N+](=O)[O-])cc1
12 | 74 to 79 °C | O=C(Cl)c1ncoc1-c1ccccc1
13 | 183 °C | CCOc1ccc(NS(=O)(=O)c2ccc(N)cc2)nn1
14 | 91 °C | CC(=O)OCCOc1cc(OCCOC(C)=O)c([N+](=O)[O-])cc1[N+](=O)[O-]
15 | 197 to 200 °C | Cc1onc(-c2ccc(F)cc2)c1C(=O)O
16 | 201 °C | CCOC(=O)C1=NN(c2ccccc2)C(=O)C1C(Br)C1(Br)C(=O)N(c2ccccc2)N=C1C(=O)OCC (stereo not drawn)
17 | 99 to 100 °C | O=C(Oc1c(F)c(F)c(F)c(F)c1F)c1ccnc(N2CCSCC2)c1
18 | 63 °C | Cc1cc2ccccc2c(Br)c1C
19 | 132 °C | CC(=O)/C(=C/Nc1ccccc1)Cc1ccccc1
20 | 164 to 166 °C | CS(=O)(=O)c1scc(-c2ccccc2)c1C#N
21 | 134 °C | COC(=O)Oc1ccccc1C(=O)O
22 | 300 °C | Nc1ccc2cc(S(=O)(=O)O)cc(S(=O)(=O)O)c2c1
23 | 212 °C | COc1ccc(C=CC(=O)Nc2ccccc2C(=O)O)cc1OC
24 | 121 to 123 °C | Cc1ccc2cc(Cl)c(Cl)cc2n1
25 | 360 °C | O=C1C(=C2C=Cc3ccccc3N2)C(=O)c2c1cccc2[N+](=O)[O-]

Row | melting point | SMILES
26 | 145 °C | COC(=O)c1scc(S(C)(=O)=O)c1N
27 | 253 °C | CC1CCc2cc(F)cc3c(=O)c(C(=O)O)cn1c23 (stereo not drawn)
28 | 102 to 104 °C | COc1ccccc1P(CCP(c1ccccc1)c1ccccc1OC)c1ccccc1 (stereo not drawn)
29 | 220 °C | NS(=O)(=O)c1cc(-c2nnn[nH]2)c(NCc2cccs2)cc1Cl
30 | 116 °C | O=C(c1ccccc1)c1nn(-c2ccccc2)c(-c2ccc([N+](=O)[O-])cc2)c1S(=O)(=O)c1ccccc1
31 | 238 to 241 °C | O=C(O)c1cc2cc([N+](=O)[O-])ccc2s1
32 | 255 °C | Oc1cccc(O)c1Cc1c(O)cccc1O
33 | 179 °C | CN(C)CCc1c[nH]c2ccc(Cn3cncn3)cc12
34 | 183 °C | O=[N+]([O-])c1cccc(-c2nnc3n2CN(c2ccccc2[N+](=O)[O-])CS3)c1
35 | 136 to 137 °C | O=C(O)CCOc1ccc(Cl)cc1
36 | 182 to 183 °C | CC(=O)N1N=C2c3ccccc3CCC2C1c1ccc(Cl)cc1 (stereo not drawn)
37 | 259 °C | C/C(=N\Nc1ccc([N+](=O)[O-])cc1[N+](=O)[O-])c1ccccc1O
38 | 71 to 73 °C | CCOC(=O)c1csc(C2CCN(C(=O)OC(C)(C)C)CC2)n1
39 | 193 °C | CCOC(=O)c1cc2cc(C(F)(F)F)c(C(F)(F)F)cc2c(=O)o1
40 | 160 °C | O=Cc1cc(O)cc(O)c1
41 | 25 °C | COc1ccc(OC)c(F)c1
42 | 222 to 224 °C | O=C1/C(=N\O)C(c2ccc([N+](=O)[O-])cc2)=NN1c1ccccc1
43 | 223 to 225 °C | NNC(=O)CCc1ccc(O)cc1
44 | 203 to 205 °C | O=S1(=O)OC(c2cc(Br)c(O)c(Br)c2)(c2cc(Br)c(O)c(Br)c2)c2c(Br)c(Br)c(Br)c(Br)c21
45 | 165 to 167 °C | O=C(NCCCCc1ccccc1)c1cc([N+](=O)[O-])cc([N+](=O)[O-])c1
46 | 312 °C | Nc1ccc(C(=O)O)cn1
47 | 99 °C | COc1cc(N)c(C#N)cc1OC
48 | 177 °C | CC(=O)OCC1OC(Oc2ccc([N+](=O)[O-])cc2)C(OC(C)=O)C(OC(C)=O)C1OC(C)=O (stereo not drawn)
49 | 218 °C | Cc1ccc(NN=C2C(=O)NN=C2c2c(O)c3ccccc3n(C)c2=O)cc1
50 | 85 to 88 °C | Cc1oc(-c2ccccc2)cc1C(=O)Cl

The remaining lines, values behind:

Row | SMILES | melting point
51 | OC(c1ccccc1)(c1ccccc1)[C@@H](c1ccccc1)N1CCCCC1 | 158 °C
52 | O=[N+]([O-])c1cccnc1Sc1ccc(Cl)cc1 | 127 to 129 °C
53 | O=C(c1ccc[nH]1)C(Cl)(Cl)Cl | 72 to 74 °C
54 | C1CCC(P(CP(C2CCCCC2)C2CCCCC2)C2CCCCC2)CC1 | 99 °C
55 | C=C1C(C)CCC2(C)C3=C(C(=O)C4(CC4C)C(OC(C)=O)C3=O)C(OC(C)=O)C(O)C12 (stereo not drawn) | 233 °C
56 | O=C(O)/C=C/c1ccc(C(F)(F)F)cc1 | 230 to 234 °C
57 | O=C(NNc1ccccc1)C1CCCCC1 | 164 °C
58 | CC(C)CI | -93 °C
59 | CC(C(=O)O)c1ccc(C2CCCC(=NO)C2)cc1 (stereo not drawn) | 178 °C
60 | CCCCC(C)CCO (stereo not drawn) | -90 °C
61 | C=CCc1ccccc1O | -6 °C
62 | CCCCCCCC1CCCC1 | -53 °C
63 | CCOc1ccc(NC(=O)C(C(F)(F)F)C(F)(F)F)cc1 | 181 °C
64 | COc1ccc(CCl)cc1 | 24.5 °C
65 | N#Cc1c(N)cc(N)nc1Br | 257 °C
66 | BrC(c1ccccc1)C(Br)c1ccccc1 (stereo not drawn) | 239 °C
67 | O=C(O)[C@H]1[C@H](C(=O)O)[C@H]2C=C[C@@H]1C2 | 185 °C
68 | O=[N+]([O-])c1ccccc1/C=C/c1nc2ccccc2s1 | 131 °C
69 | O=NN1NC(=O)CC1c1ccc(C2CC(=O)NN2N=O)cc1 (stereo not drawn) | 150 °C
70 | CC(=O)NCCc1ccccc1 | 48 to 52 °C
71 | COC(=O)C(C)Oc1ccc(Oc2ccc(Cl)cc2Cl)cc1 (stereo not drawn) | 44 °C
72 | Cc1cccc([N+](=O)[O-])c1O | 70 °C
73 | NC(=O)C=Cc1ccc(C=CC(N)=O)cc1 | 320 °C
74 | CCCC(CC)C1(CC)C(=O)NC(=O)NC1=O (stereo not drawn) | 122 °C
75 | FC(F)(F)c1cccc(C(F)(F)F)n1 | 57 °C

Row | SMILES | melting point
76 | CCN(CC)c1nc(C)cc(OP(=S)(OC)OC)n1 | 21 °C
77 | FC(F)(F)C(F)(F)C(F)(F)C(F)(F)C(F)(F)C(F)(F)C(F)(F)C(F)(F)Br | < 25 °C
78 | Cc1ccc(S(=O)(=O)N/N=C2\C=CC(C)(c3ccccc3)CC2)cc1 (stereo not drawn) | 147 °C
79 | CS(=O)(=O)c1ccc(C(C=O)C=O)c([N+](=O)[O-])c1 | 213 to 219 °C
80 | O=C(O)Cc1ccc(F)cc1F | 118 °C
81 | CNC(=O)C=C(C)OP(=O)(OC)OC | 55 °C
82 | O=C(CCC1=NC=NC1)NCCc1c[nH]cn1 | 164 °C
83 | NC(=S)Nc1ccc(Cl)cc1 | 177 to 181 °C
84 | NC(=S)Nc1cccc(Cl)c1Cl | 160 to 162 °C
85 | S=C=Nc1c(Br)cc(Br)cc1Br | 106 to 110 °C
86 | O=[N+]([O-])c1ccc(NN=CC2=C(/C=C/c3ccccc3)CCCC2)c([N+](=O)[O-])c1 | 261 to 262 °C
87 | Fc1ccc(Oc2ccnc3cc(Cl)cc(Cl)c23)cc1 | 107 °C
88 | CCCCCCCCC=CCCCCCCCC(=O)O | 45 °C
89 | Cc1ccc(NC(=O)C=CC(=O)O)cc1 | 205 °C
90 | CCCCCCC1CCCC1 | -73 °C
91 | C=C(C)CNc1ccc(C(C)C(=O)O)cc1 (stereo not drawn) | 107 °C
92 | O/N=C(/C=Cc1ccccc1)c1ccccc1 | 115 to 116 °C
93 | CN1CCC2=C(C1)C(c1ccccc1)c1ccccc12 (stereo not drawn) | 91 °C
94 | O=C(C1CCNCC1)N1CCCCC1 | 107 to 109 °C
95 | CCCCCCCCCCOC(=O)CCCCC(=O)OCCCCCCCC | -50 °C
96 | CC(C)[C@@H](N)C(=O)O | 302 to 303 °C
97 | Nc1cccc(-c2ccccc2)c1 | 33 °C
98 | COC(=O)CCC(C)C1CCC2C3C(O)C(O)C4CC(OC(C)=O)CCC4(C)C3CC(OC(C)=O)C12C (stereo not drawn) | 175 to 177 °C
99 | O=C(O)c1ccc2nonc2c1 | 157 to 158 °C
100 | C[C@]12CC[C@@H](O)[C@H](O)[C@@H]1CC[C@@H]1[C@@H]2CC[C@]2(C)C(=O)CC[C@@H]12 | 233 °C

Row | SMILES | melting point
101 | O=C(O)c1ccc(F)cc1[N+](=O)[O-] | 149 °C
102 | CCCCCCS(=O)(=O)O | 16.1 °C
103 | COc1ccc(/C=N/c2nc(C(F)(F)F)n[nH]2)cc1 | 171 °C
104 | CC(CP(c1ccccc1)c1ccccc1)P(c1ccccc1)c1ccccc1 (stereo not drawn) | 68 to 73 °C
105 | CCCSP(=O)(OCC)SCCC | 70 °C
106 | CON(C)C(=O)Nc1ccc(Cl)cc1 | 81.5 °C
107 | O=C(O)C1CCCC1 | 4 °C
108 | Cc1ccc(C(=O)NN)cc1 | 117 °C
109 | CON=O | -16 °C
110 | Brc1cccc(N2CCCC2)n1 | 86 to 88 °C
111 | N#CC(=NO)c1ccccc1 | 129 °C
112 | CC(C)(C)OC(=O)N1CCC(c2nc(C=O)cs2)CC1 | 91 to 93 °C
113 | O=C(NCCCl)c1ccccc1 | 103 °C
114 | O=C1CCC2C1C1CCC(=O)C21 (stereo not drawn) | 266 °C
115 | C/C=C/C(=O)NNc1ccccc1 | 190 °C
116 | S=c1oc2ccccc2n1CSCCCS | 188 °C
117 | CCOC1=NN(c2ccc([N+](=O)[O-])cc2)C(=O)C1 | 142 °C
118 | C(C#CCOc1ccccc1)#CCOc1ccccc1 | 82 °C
119 | O=[N+]([O-])c1ccc2[nH]ccc2c1 | 205 to 207 °C
120 | Cc1cc([N+](=O)[O-])ccc1N=C=O | 83 °C
121 | Nc1nnc(Cc2ccccc2)[nH]1 | 171 to 173 °C
122 | O=C(Cl)c1csc(-c2ccc(C(F)(F)F)cc2)n1 | 96 to 98 °C
123 | Cn1cccc1C(=O)O | 137 °C

Source: a melting point compilation (Tetko et al.)
